melting point	Compound
64 °C	CC(=O)c1c(F)cccc1N1CCN(CCCCOc2ccc3c(n2)NC(=O)CC3)CC1
125 °C	Clc1ccc2c(c1)CN1C(=Nc3cccnc3)SC[C@@H]1C2
190 °C	CC(C(=O)O)c1ccc2oc(-c3ccc(Cl)cc3)nc2c1 (stereo not drawn)
251 to 253 °C	COc1ccc([N+](=O)[O-])c2c1CCC(C(=O)Nc1ccc(N3CCOCC3)cc1)C2 (stereo not drawn)
118 to 120 °C	Oc1ccc2c(c1)CCC(NCC(O)COc1cccc3ccccc13)C2 (stereo not drawn)
208 to 209 °C	O=C(Nc1ccc(F)cc1F)C1C(=O)N2c3ccccc3Sc3cccc1c32 (stereo not drawn)
265 to 268 °C	O=C(Nc1ccc(Cl)cn1)c1cn2nc(N3CCN(C(=O)c4ccccc4C(F)(F)F)CC3)ccc2n1
93 to 95 °C	COC(=O)C1Oc2ccccc2Cc2ccc(OC)cc2O1 (stereo not drawn)
203 to 204 °C	CCOC(=O)c1csc(NC(=O)c2cccc(C#N)c2)n1
196 to 200 °C	CC1=C(C)C(=O)N(CC(=O)N2c3ccccc3N(Cc3ccccc3)C(=O)[C@H]3CCC[C@H]32)C1=O (relative stereo)
124 to 125 °C	O=C(OC1CCCCC1=O)c1ccc([N+](=O)[O-])cc1 (stereo not drawn)
193 to 196 °C	NN=Cc1ccc(CC(=O)NC2CCC3(CC2)CN(CC(=O)O)C(=O)O3)cc1 (stereo not drawn)
198 to 200 °C	COC(=O)CCCNC(=O)N1CCN(c2cc3c(cc2F)c(=O)c(C(=O)O)cn3C2CC2)CC1
98.5 to 99.5 °C	O=C(CCCCN1CCCCC1)c1ccc2c(c1)Cc1cc(C(=O)CCCCN3CCCCC3)ccc1S2
49.7 °C	CCCCc1ccc(C(=O)Oc2ccc(C=O)cc2)cc1
137 °C	O[C@]1(c2ccccc2)CCS[C@H]2CN(Cc3ccccc3)C[C@H]21 (racemic)
145 to 146 °C	Cc1ccccc1NC(=N)NC1CCCCC1
145 to 147 °C	COC(=O)C1=C(N)NC(C)=C([N+](=O)[O-])C1c1ccccc1S(=O)(=O)CCCCN1CCN(c2ccccc2OC)CC1 (stereo not drawn)

melting point	Compound
124 to 127 °C	CCOC(=O)[C@H](CSC[C@H](Cc1ccccc1)NC(=O)OCc1ccccc1)N[C@@H](C)C(=O)O
320 to 322 °C	COc1ccc(NC(=O)NCc2cccc3c2CN(C2CCC(=O)NC2=O)C3=O)cc1 (stereo not drawn)
130 to 134 °C	CC(C)c1cccc(C(C)C)c1NC(=O)NS(=O)(=O)Cl
158 to 160 °C	O=CNNc1ccc(NC(=S)NC2CCCCC2)cc1
110 to 111 °C	COc1ncc(CNc2ccccc2C(=O)Nc2cccc(C(F)(F)F)c2)cc1Br
152 to 154 °C	CC(C)NC(=O)c1ccc([N+](=O)[O-])cc1
172 to 173 °C	CC(O)CNCc1cc2c(=O)c(C(=O)NCc3ccc(Cl)cc3)cn(C)c2o1 (stereo not drawn)
255 °C	Cc1nc2c3c(ccc2n1C)C(=O)C(OC(=O)C(C)(C)C)C(c1ccccc1)O3 (stereo not drawn)
200 to 201 °C	CC(=O)N1CCN(C2=CC(C)(C)Oc3ccc(C#N)cc32)C1=NC#N
277 to 279 °C	CN1CCN(c2cc(C(=O)Nc3ccc4c(c3)-c3c(c(C(N)=O)nn3-c3ccc(F)cc3)CC4)ccn2)CC1
271 to 272 °C	O=c1cc(-c2ccccc2)sc2c1[nH]c1ccccc12
210 to 212 °C	COc1ccc2c(c1)c(-c1cc3c(C(=O)NC(C)(C)CO)ccnc3[nH]1)cn2C
100 to 102 °C	CC(=O)c1cccc(NC=O)c1
119 to 121 °C	O=c1c(N2CCNCC2)nccn1CCOc1cc(F)cc(F)c1
113 to 115 °C	CCOC(=O)N1CCOC(CN2C(=O)c3ccccc3C2=O)C1 (stereo not drawn)
246 °C	O=c1[nH]c2cccc(O)c2n1CCN1CCN(c2cccc(C(F)(F)F)c2)CC1
268 to 270 °C	CC(C)(C)c1ccc(-c2ccc(N3CCCN(c4ccc(-c5ccc(C(C)(C)C)cc5)cn4)CC3)nc2)cc1
196 °C	COc1ccc2sc(C(=O)Nc3ccc(CC(=O)O)cc3)c(OC(C)C)c2c1

Continued, compound first:

Compound	melting point
Cc1cc(Cl)ccc1C(=O)CN(C(=O)C(C)Cl)c1ccccc1 (stereo not drawn)	128 °C
COc1cc(OCc2ccccn2)ccc1/C=C/c1cc(/C=C/c2ccc3cc[nH]c3c2)n(C(C)O)n1 (stereo not drawn)	94 to 97 °C
COc1ccc(OCC#N)c(SCC#N)c1	53 to 54 °C
CC(C)Cn1c(CNC(=O)OC(C)(C)C)c(-c2ccccc2F)c2cc(C(=O)O)ccc2c1=O	213 to 214 °C
CC(Oc1ccccc1Cl)C(=O)OC1CC(O)C=C2C=CC(C)C(CCC3CC(O)CC(=O)O3)C21 (mixture of isomers)	152 to 155 °C
Cc1c(CC(C)C(=O)c2cn(C)c3ccccc23)ncn1C(c1ccccc1)(c1ccccc1)c1ccccc1 (stereo not drawn)	209 to 210 °C
COC(=O)c1cc2cc(OC)c(OC)cc2nc1N	227 to 229 °C
CCOC(=O)C(=O)c1ccc(OCCCCCCCCCCCCOc2ccccc2)cc1	58 to 59 °C
CCCCc1nn(-c2ccccc2Cl)c(=O)n1Cc1ccc(-c2ccccc2S(=O)(=O)NC(=O)C(F)(F)F)cc1	163 to 166 °C
CCC(C)(C)OC(=O)NC(C)(Cc1c[nH]c2ccccc12)C(=O)NCCc1cccnc1 (stereo not drawn)	95 to 105 °C
CS(=O)(=O)c1ccc(-c2cnn(-c3ccc(F)c(F)c3)c(=O)c2C#Cc2ccccc2)cc1	211 to 213 °C
CC1(C)CC(N(c2nc(F)nc(N(C3CC(C)(C)N(O)C(C)(C)C3)C3CC(C)(C)N(O)C(C)(C)C3)n2)C2CC(C)(C)N(O)C(C)(C)C2)CC(C)(C)N1O	254 to 257 °C
CCCOC(=O)c1cc(=O)c2c(OCc3ccc(OCc4ccc5ccccc5n4)cc3)c(Cl)ccc2o1	173 to 174 °C
CC(=O)CCS(=O)(=O)C(c1ccc(Cl)cc1)c1ccc(Cl)cc1	103 to 105 °C
C#Cc1cc(Oc2cnc(NC(CO)CO)nc2N)c(C(C)C)cc1OC	136 to 139 °C
CCOCc1nc(N)c2nc(C)cnc2n1	166 to 168 °C
O=C(NCCO)c1ccc(-c2cccc3cc(Cc4cccc(C(F)(F)F)c4)sc23)cc1	120 to 121 °C
CCOC(=O)c1nc(-c2ccc(Cl)cc2Cl)c(-c2ccc(Br)cc2)s1	129 to 130 °C
SCCNc1nc(-c2ccccc2)c2cc(Cl)ccc2n1	166 °C

Compound	melting point
COc1ccc(N(C(=O)CN2C(=O)C(CO)C(=O)N(c3ccccc3)c3ccccc32)C(C)C)cc1 (stereo not drawn)	136 to 139 °C
Cn1c2cc(C#N)ccc2c2nc3ccccc3nc21	284 to 287 °C
CC1(O)c2ccccc2C=C(Br)c2ccncc21 (stereo not drawn)	226 to 230 °C
COc1ccc(-c2cccc3c2N(S(=O)(=O)c2ccc(OC)cc2)CC3)cc1	176 to 177 °C
CCc1cccc(C)c1CNc1cc(C(=O)O)cc2c1nc(C)n2C	312 to 314 °C
CC(C)(C)OC(=O)n1c(-c2ccc3c(c2)C(C)(C)OC(=O)N3)ccc1[N+](=O)[O-]	125 °C
CC(C)(C)OC(=O)CON=C(C(=O)O)c1cccs1	88.3 to 91.3 °C
Nc1ccccc1Oc1ccc2c(c1)C(=O)NC2=O	212 °C
Cc1cc(Cc2cc(C(F)(F)F)cc(C(F)(F)F)c2)ccc1NC(=O)c1cccc(Cl)c1C(=O)N[C@@H](C)CS(C)(=O)=O	155 to 158 °C
O=c1[nH]c2c(I)c([N+](=O)[O-])c(Cl)c([N+](=O)[O-])c2[nH]c1=O	240 to 242 °C
CC(C)Cn1c(CO)c(-c2ccccc2F)c2cc(OCc3ccccc3)ccc2c1=O	191 to 192 °C
N#CC1=C(c2ccc3ccccc3c2)Nc2n[nH]cc2C1c1cccc2nonc12 (stereo not drawn)	228 °C
Clc1ncc(C(c2ccccc2)c2ccccc2)cc1C(c1ccccc1)c1ccccc1	131 to 133 °C
COc1cc(-c2sc3nc(N)[nH]c(=O)c3c2C)ccc1Cl	312 to 322 °C
Cc1c(C)c2c(c(C)c1NCc1ccccc1)C(c1ccc(-c3ccccc3)cc1)CO2 (stereo not drawn)	77 to 78 °C
CCOC(=O)c1cc(N)ccc1OC(C)=O	82.5 to 83 °C
Nc1cc(Cl)c(Sc2cccc3cnccc23)cc1N	200 to 203 °C
COc1cc2c(cc1Nc1ncc(Cl)c(Nc3ccc(N4CCOCC4)cc3OC)n1)CCN(CC(=O)N1CCOCC1)CC2	189 to 191 °C
O=CNc1cc([N+](=O)[O-])cc([N+](=O)[O-])c1	121 to 123 °C

Compound	melting point
CCCCCc1cnc(-c2ccc(-c3ccc(C#N)cc3)cc2)nc1	124 °C
C=C(C)Cc1cc(C)c2c(c1O)C(=O)CC2	62.5 to 64 °C
COc1ccc(CCOc2cccc(-c3cccc(N)c3)n2)cc1OC	103 to 104 °C
Cc1c(CC(=O)O)c2ccccc2c(=O)n1Cc1ccc(Cl)c(Cl)c1	218 to 220 °C
CSC(=S)N1CCN(Cc2cc(OC(C)=O)c(OC(C)=O)c(OC(C)=O)c2)CC1	141 to 143 °C
CC(=O)OCc1c(Br)cccc1N1Cc2cc(C(C)(C)C)ccc2C1=O	176 to 178 °C
COc1cc2c(cc1O)CCN(Cc1cccc(OC)c1OC)C2	101 to 102 °C
CCN(CC)c1ccc(-c2cc(-c3ccc(C(=O)O)cc3)ccc2CCCN)cc1C(C)(C)C	272 °C
CC(C)OC(=O)c1cc(Cl)c(Cl)c(-c2ccccc2)n1	94 to 96 °C
CC(=O)OCC1OC(n2c(=O)sc3c(Cl)nc(Cl)nc32)C(OC(C)=O)C1OC(C)=O (stereo not drawn)	125 to 126 °C
Cc1nc2c(C(F)(F)F)cccc2c(-c2ccccc2)c1C(=O)c1ccccc1	175 to 177 °C
CCOC(=O)c1ncn2c1C(C)N=C(c1ccccc1)c1cc(Br)ccc1-2 (stereo not drawn)	164 to 165 °C
c1ccc2[nH]c3c4ccccc4nc-3cc2c1	249 to 251 °C
Clc1cc(NC23CC4CC(CC(C4)C2)C3)nc(N2CCCC2)n1	186 to 190 °C
CC(C)(C)NS(=O)(=O)c1cc2c(s1)S(=O)(=O)NCC2O (stereo not drawn)	144 to 147 °C
CS(=O)(=O)N[C@H]1C[C@H](C(=O)O)Nc2cc(Cl)cc(Cl)c21 (relative stereo)	194 to 195 °C
COc1ccc(-c2nc(COc3cccc([N+](=O)[O-])c3)c(C)o2)cc1	109 to 111 °C
CCOC(=O)/C=C/[C@H]1O[C@@H](n2cc(CC)c(=O)[nH]c2=O)C[C@@H]1OC(C)=O	132 to 133 °C
COc1cc2cc(CO)c(CO)c(-c3ccncc3)c2cc1OC	118 to 120 °C

Reference: a melting point compilation (Tetko et al.; mined from patent text by program, amines drawn as free bases though some values may be those of a salt)
